Where only a bound is given, the exact number is not on record here.

One test has as its system normal B6 CD8^+ cells. Put plainly: Proliferation of normal (nontransgenic) B6 CD8+ cells to peptide on L^d.B7.ICAM Drosophila APC. It counts as cell-based, mouse. To be noted: 10 μM peptide, L^d.B7.1CAM APC, 1×10^6 responder cells, no added cytokines. As for the experimental part:
The capacity of L^d.B7.1CAM Drosophila cells to induce a strong primary response of 2C TCR transgenic CD8^+ cells raised the question whether Drosophila cells could act as antigen-presenting cells for normal (nontransgenic) CD8^+ cells. Since the 2C mice were on a B6 (H-2b) background, the response of normal B6 CD8^+ cells was tested. Graded doses of CD8^+ cells from normal B6 mice were cultured with 10 μM QL9 peptide presented by L^d.B7.1CAM Drosophila antigen-presenting cells, i.e. a situation where a diverse repertoire of T-cells was exposed to only a single alloantigen (L^d+QL9) but at high concentration. As shown in FIG. 19 (left), presentation of QL9 by L^d.B7.1CAM antigen-presenting cells was indeed immunogenic for normal B6 CD8^+ cells and led to appreciable proliferative responses on Day 3 (80,000 cpm) with large doses of responder cells (1×10^6) in the absence of added cytokines; responses to an unrelated peptide, MCMV, were much lower (though significant) and no response occurred in the absence of peptide. As expected, the response of normal B6 CD8+cells to QL9 plus L^d.B7.1CAM antigen-presenting cells was substantially lower than with normal B10.D2 spleen cells as antigen-presenting cells (where the allostimulus was provided by a multiplicity of self peptides bound to L^d, K^d and D^d, but at low concentration) (FIG. 19, right. Note the difference in the Y axis scales).

Test [1] has as its system CD8^+ 2C lymph node cells. Put plainly: IL-2 production by CD8+ 2C lymph node cells (CTLL indicator line 3HTdR). In kind it is cell-based, mouse. To be noted: peptide 10 μM. On the procedure:
Using a standard tissue culture system (Cai, Z. and Sprent, J. (1994) J. Exp. Med. 179: 2005-2015), doses of 5×10^4 purified CD8^+ 2C lymph node (LN) cells were cultured at 37° C. with doses of 3×10^5 transfected fly cells ±peptides (10 μM final concentration). Peptides were synthesized by R. W. Johnson Pharmaceutical Research Institute (Sykulev, et al. (1994) Immunity 1: 15-22. Proliferative responses were measured by adding ^3HTdR (1 μCi/well) 8 hours prior to harvest. IL-2 production was measured by removing supernatants from the cultures at 48 hours and adding 50 μl supernatant to an IL-2 responsive indicator cell line (CTLL); proliferation of the indicator line was measured by addition of ^3HTdR. The data shown in Table 2 are the means of triplicate cultures. The transfected Drosophila S2 cells die rapidly at 37° C. and fail to incorporate ^3HTdR at this temperature.

For test [2], the system named is 2C+ T-cells. Put plainly: Enrichment of 2C+ T-cells from a 1/99 mixture with C57BL/6 CD8+ cells (1B2 staining, flow cytofluorometry). It counts as cell-based, mouse. As for the experimental part: 2C+ T-cells were mixed with total CD8^+ cells from C57BL/6 mice at a 1/99 ratio and cells were cultured with immobilized L^d and anti-CD28 antibody in the presence of peptide QL9. IL-2 was added at day 2 of culture, and subsequently every other day. Cell activation and proliferation was noted, as evidenced by the formation of clumps, presence of enlarged cells that progressively spread in the well. At day 12 of culture, cells were harvested and percentage of cells expressing the 2C T-cell receptor was assessed by staining with the anticlonotypic antibody 1B2 and analysis by flow cytofluorometry: 43% of the cells cultured initially in the presence of peptide QL9 were 2C+, (FIG. 22) whereas 49% of the cells expressed 2C after stimulation with peptide p2Ca (FIG. 23), and 22% with peptide SL9 (FIG. 24). […] Enrichment was observed even with SL9, a peptide that makes a low affinity complex with the 2C T-cell receptor. This method thus can specifically activate and enrich a small subpopulation of antigen specific T-cells out of a heterogenous mixture of T-cells.

Another test relates to soluble 2C TCR molecules. The note with it: peptide complexed to L^d; association constant; cited from earlier work.
Test [3] deals with CD8^+ 2C cells. The test is described as follows: Dose-response of day 3 proliferation of CD8+ 2C cells to peptides on transfected Drosophila APC. It counts as cell-based, mouse. To be noted: for proliferative response: 1 nM peptide. As for the experimental part:
Responses to p2Ca (above) and QL9 (below) were measured by culturing 5×10^4 purified CD8^+ 2C cells with 2×10^5 Drosophila cells in the presence or absence of the indicated concentrations of peptides for 3 days. [^3H] TdR was added during the last 8 hours of culture; rIL-2 was added at a final concentration of 20 units/ml. The data are the mean of triplicate cultures. When supplemented with exogenous IL-2, however, both peptides stimulated significant proliferative responses at high doses (10 μM). The proliferative responses elicited by QL9 were far stronger than for p2Ca (note the large difference between the scales of x-axes of the upper and the lower panel).
Dose-response relationships for proliferation on day 3 elicited by Drosophila cells transfected with L^d.B7.1CAM and presenting p2Ca peptide were compared to those elicited by Drosophila cells transfected with L^d.B7, L^d.ICAM or L^d.B7.1CAM presenting QL9 peptide. Drosophila APC (2×10^5 cells) were cultured with 5×10^4 CD8^+ 2C cells for three days in the presence or absence of peptides. [^3H] TdR was added during the last 8 hours of culture; no IL-2 was added to the cultures.

Test [4] concerns RMA.S cells (target cells) expressing L^d. It counts as cell-based, mouse.
Test [5] relates to CD8^+ 2C cells. The test is described as follows: CD69 and CD25 expression on CD8+ 2C cells stimulated with transfected Drosophila cells plus peptide. It counts as cell-based, mouse. To be noted: Drosophila cells expressing L^d alone; peptide 10 μM, 12 hours. As for the experimental part:
TCR stimulation elicited a complex pattern of intracellular events which lead to early up-regulation of CD69 and CD25 (IL-2 receptor or IL-2R) on the cell surface. These changes are apparent within a few hours of stimulation and are followed by cytokine synthesis and cell proliferation. Drosophila cells were transfected with genes for L^d, L^d and B7.1 (L^d.B7), L^d and ICAM-1 (L^d.ICAM) or L^d, B7.1 and ICAM-1 (L^d.B7.1CAM). […] Purified CD8^+ 2C cells were incubated with various Drosophila cells plus a peptide (either p2Ca or QL9, 10 μM) in bulk (2 ml) culture for 12 hours and then stained for CD69 or CD25. Either p2Ca or QL9 presented by Drosophila cells transfected with L^d.B7, L^d.ICAM or L^d.B7.1CAM were effective in stimulating the up-regulation of CD69 and CD25.

The subject of test [6] is 2C+ T-cells. It counts as cell-based, mouse.

With “Gln-Leu-Ser-Pro-Phe-Pro-Phe-Asp-Leu [QL9]”, the “proliferative response on Day 3” value in the test with normal B6 CD8^+ cells is 80,000 cpm. Besides, the “IL-2 Production (Day 2) ^3HTdR incorporation, fly cells expressing L^d” value in test [1] (APC L^d) turned out to be 0.1 cpm × 10^3. Further, in test [1] (APC L^d + B7.1), the “IL-2 Production (Day 2) ^3HTdR incorporation, fly cells expressing L^d + B7.1” value worked out at 0.4 cpm × 10^3. In addition, the “IL-2 Production (Day 2) ^3HTdR incorporation, fly cells expressing L^d + B7.1 + ICAM-1” value in test [1] (APC L^d + B7.1 + ICAM-1) is recorded as 158.6 cpm × 10^3. In test [1] (APC L^d + ICAM-1), the “IL-2 Production (Day 2) ^3HTdR incorporation, fly cells expressing L^d + ICAM-1” value turned out to be 0.2 cpm × 10^3. In addition, the “IL-2 Production (Day 2) ^3HTdR incorporation, L^d + B7.1 combined with L^d + ICAM-1” value in test [1] (mixture of two APC lines) amounted to 0.5 cpm × 10^3. In addition, the “enrichment in specific T-cells after 12 days” value with 2C+ T-cells [2] (start 1/99) is 43 times. In the test on 2C+ T-cells [2] (start 1/99 2C+/total CD8+, immobilized L^d and anti-CD28, IL-2 from day 2), the “cells expressing the 2C T-cell receptor (2C+) at day 12” value was determined as 43%. Besides, in the test with soluble 2C TCR molecules, the “affinity for 2C TCR molecules” value was 2e+07 M⁻¹. The proliferative response with CD8^+ 2C cells [3] (L^d.B7 and L^d.ICAM APC) is given as < 100 cpm. In addition, the proliferative response in the test on CD8^+ 2C cells [3] (L^d.B7.1CAM APC) was > 10,000 cpm. Besides, the “effect of high peptide dose on day 3 proliferative response” value in the test on CD8^+ 2C cells [3] (10 μM peptide, L^d.B7.1CAM APC) was “inhibited”. Also, the “proliferation of 2C CD8+ cells” value in the test with CD8^+ 2C cells [3] (Drosophila cells with L^d alone, no exogenous lymphokines) is “failed”. In addition, in the test with CD8^+ 2C cells [3] (L^d.B7.1CAM APC, no IL-2), the “lowest peptide dose with clearly apparent day 3 proliferative response” value is on record as ≤ 10 pM and the “peptide concentration giving maximal day 3 proliferative response” value turned out to be 100 nM. Moreover, the “lysis of target cells in the presence of peptide” value in test [4] is “observed”. Moreover, the “induction of CD69 and CD25 expression” value with CD8^+ 2C cells [5] is on record as “low, but significant”. The thymidine incorporation entry in the test with 2C+ T-cells [6] was “above 100,000 cpm per well”.

Values taken from US20030138946A1.
